# Values joined by “and” are separate entries in the source; they are usually repeats but may differ in a detail not shown here. Equal values may be shown once. Read-outs that look alike come from different tables or passages of the source.
# How the values were obtained:
# [1] = tested on: normal and non-insulin-dependent non-obese diabetic subjects; conditions: rectal suppository; cited from earlier work
# [2] = tested on: normal and NIDDM subjects; conditions: inhaled
# Procedure: (§1) Subjects 3, 4 and 6 were medicated with Glyburide 10 mg/day, 15 mg/day, and 5 mg/day, respectively. Subject No. 5 was treated with Diabinese 750 mg/day. Subject No. 7 was medicated with Glyburide 20 mg/day and Subject No. 8 was unmedicated. […] Blood samples were assessed at the time of collection for glucose levels with a glucose meter (Accuchek). Determinations of plasma glucose levels were also obtained from photometric reaction with glucose hexokinase using an Hitachi 736 and 737 chemical analyzer (Boehringer Mannheim Diagnostics). The reference range for fasting adults using this technique and equipment is 3.92-6.44 SI units. […] The expected range of values for normals in the fasting state, as provided by Diagnostics Products Corp., is 18-210 SI units. An IV saline solution was running, 50% glucose was available in case the blood glucose level decreased rapidly, and a diabetologist was present during the study. […] Studies were performed in the Johns Hopkins Outpatient Clinical Research Center. All patients who participated in these experiments gave informed consent to a written description of the study, which was approved by the Institutional Review Board.
# [3] = tested on: rabbits; conditions: micellar form, intrajejunal administration, reduction in blood glucose; cited from earlier work
# [4] = tested on: normal subjects and non-insulin dependent diabetic (NIDDM) subjects; experiment: Blood glucose response after inhalation of aerosolized insulin; type: in vivo, human; conditions: for Maximum Decrease in Glucose (% of Baseline): fasting
# Text: The timing of each aerosol actuation was controlled by a Rosenthal-French dosimeter and lasted for one second. […] The distance between the subject's mouth and the nebulizer reduced aerosol velocity and, thus, impaction of particles in the mouth. Inspiratory flow rate at the time of aerosol inhalation was regulated to less than 30 and, preferably about 17 liters/minute by rate limiting orifices of the type described above. During inhalation, patients inspired from residual volume to total lung capacity.
# After the sixth actuation, aerosol was inhaled from the holding chamber through a mouthpiece. […] Each inhalation was proceeded by six actuations of the nebulizer.
# [5] = tested on: diabetic subjects; conditions: intranasal bile-salt aerosol; cited from earlier work
# [6] = for Peak Insulin Level: fasting
# Text: The timing of each aerosol actuation was controlled by a Rosenthal-French dosimeter and lasted for one second. […] Inspiratory flow rate at the time of aerosol inhalation was regulated to less than 30 and, preferably about 17 liters/minute by rate limiting orifices of the type described above. During inhalation, patients inspired from residual volume to total lung capacity.
# After the sixth actuation, aerosol was inhaled from the holding chamber through a mouthpiece. […]
# To accomplish this dosing regime, volunteers inhaled 5-13 times from the holding chamber. Each inhalation was preceded by six actuations of the nebulizer.
# as §1
# When averaging decreases in blood glucose levels the data were normalized in terms of percent change from baseline.
# [7] = NIDDM subject 3, 0.21 U/kg BW inhaled
# [8] = NIDDM subject 4, 0.23 U/kg BW inhaled
# [9] = NIDDM subject 5, 0.21 U/kg BW inhaled
# [10] = NIDDM subject 6, 0.20 U/kg BW inhaled
# [11] = NIDDM subject 7, 0.20 U/kg BW inhaled
# [12] = NIDDM subject 8, 0.20 U/kg BW inhaled
# [13] = eight subjects (second dose for subjects 1 and 2), mean dose 0.21 U/kg BW inhaled
# [14] = normal subject 1, first dose, 0.09 U/kg BW inhaled
# [15] = normal subject 1, second dose, 0.19 U/kg BW inhaled
# [16] = normal subject 2, first dose, 0.11 U/kg BW inhaled
# [17] = normal subject 2, second dose, 0.21 U/kg BW inhaled
substance,measurement,setting,value
insulin: regular U-500 pork insulin (Eli Lilly) aerosolized by a jet nebulizer; background citations concern insulin given by other routes,Complaints after rectal administration,[1],some subjects complained of abdominal discomfort or a feeling of rectal urgency
same,"Dose necessary to lower blood glucose significantly, relative to subcutaneous dose",[1],10 times
same,Adverse symptoms from the respiratory tract,[2],No adverse symptoms from the respiratory tract were reported or signs observed
same,"Adrenergic, hypoglycemic signs or symptoms",[2]; listed as Aerosolized insulin,"lack of any signs or symptoms, including adrenergic symptoms"
same,Tolerability of aerosolized insulin,[2]; listed as Aerosolized insulin,very well tolerated
same,Tolerability of aerosolized insulin,[2]; listed as aerosolized insulin,well-tolerated
same,"Adrenergic, hypoglycemic signs or symptoms",[2]; listed as insulin aerosol,"none of the subjects had adrenergic, hypoglycemic symptoms"
same,Tolerability of aerosolized insulin,[2]; listed as insulin aerosol,well-tolerated
same,Required dose relative to intramuscular dose,[3],25-50 times
same,Time to 10% Decrease in Glucose,[4]; [7],30 min
same,Time to Lowest Glucose Level,[4]; [7],150 min
same,Maximum Decrease in Glucose (% of Baseline),[4]; [7],43%
same,"Glucose level decreased to, after insulin inhalation","[4]; NIDDM subject 3, 0.21 U/kg BW inhaled, baseline 10.58",6.05 SI units
same,Time to 10% Decrease in Glucose,[4]; [8],30 min
same,Time to Lowest Glucose Level,[4]; [8],160 min
same,Maximum Decrease in Glucose (% of Baseline),[4]; [8],71%
same,"Glucose level decreased to, after insulin inhalation","[4]; NIDDM subject 4, 0.23 U/kg BW inhaled, baseline 16.58",4.82 SI units
same,Time to 10% Decrease in Glucose,[4]; [9],40 min
same,Time to Lowest Glucose Level,[4]; [9],200 min
same,Maximum Decrease in Glucose (% of Baseline),[4]; [9],53%
same,"Glucose level decreased to, after insulin inhalation","[4]; NIDDM subject 5, 0.21 U/kg BW inhaled, baseline 12.12",5.71 SI units
same,Time to 10% Decrease in Glucose,[4]; [10],42 min
same,Time to Lowest Glucose Level,[4]; [10],140 min
same,Maximum Decrease in Glucose (% of Baseline),[4]; [10],54%
same,"Glucose level decreased to, after insulin inhalation","[4]; NIDDM subject 6, 0.20 U/kg BW inhaled, baseline 9.27",4.26 SI units
same,Time to 10% Decrease in Glucose,[4]; [11],20 min
same,Time to Lowest Glucose Level,[4]; [11],120 min
same,Maximum Decrease in Glucose (% of Baseline),[4]; [11],61%
same,"Glucose level decreased to, after insulin inhalation","[4]; NIDDM subject 7, 0.20 U/kg BW inhaled, baseline 13.94",5.49 SI units
same,Time to 10% Decrease in Glucose,[4]; [12],60 min
same,Time to Lowest Glucose Level,[4]; [12],150 min
same,Maximum Decrease in Glucose (% of Baseline),[4]; [12],49%
same,"Glucose level decreased to, after insulin inhalation","[4]; NIDDM subject 8, 0.20 U/kg BW inhaled, baseline 13.30",6.78 SI units
same,Mean maximum decrease in glucose from baseline,"[4]; NIDDM subjects, 0.2 U/kg BW inhaled",55±10%
same,Shift of blood glucose levels to the normal range,"[4]; NIDDM subjects, approximately 0.2 U/kg BW aerosolized insulin, normal range 4.20-6.44 SI units",shifted blood glucose levels of five of the six NIDDM subjects to within the normal range
same,"Maximum Decrease in Glucose (% of Baseline), mean","[4]; eight subjects (second dose for subjects 1 and 2), 0.2 U/kg BW inhaled",52±10% and 52%
same,"Time to 10% Decrease in Glucose, mean",[4]; [13],36 ± 15 min and 36 min
same,"Time to Lowest Glucose Level (time to maximum decrease in blood glucose), mean",[4]; [13],138 ± 46 min and 138 min
same,"Glucose level decreased to, after insulin inhalation","[4]; normal subject 1, 0.09 U/kg BW inhaled, baseline 4.70",4.09 SI units
same,"Glucose level decreased to, after insulin inhalation","[4]; normal subject 1, 0.19 U/kg BW inhaled, baseline 4.70",3.08 SI units
same,Time to 10% Decrease in Glucose,[4]; [14],35 min
same,Time to Lowest Glucose Level,[4]; [14],80 min
same,Maximum Decrease in Glucose (% of Baseline),[4]; [14],13%
same,Time to 10% Decrease in Glucose,[4]; [15],50 min
same,Time to Lowest Glucose Level,[4]; [15],140 min
same,Maximum Decrease in Glucose (% of Baseline),[4]; [15],34%
same,"Glucose level decreased to, after insulin inhalation","[4]; normal subject 2, 0.11 U/kg BW inhaled, baseline 3.95",3.14 SI units
same,"Glucose level decreased to, after insulin inhalation","[4]; normal subject 2, 0.21 U/kg BW inhaled, baseline 4.34",2.24 SI units
same,Time to 10% Decrease in Glucose,[4]; [16],5 min
same,Time to Lowest Glucose Level,[4]; [16],40 min
same,Maximum Decrease in Glucose (% of Baseline),[4]; [16],20%
same,Time to 10% Decrease in Glucose,[4]; [17],15 min
same,Time to Lowest Glucose Level,[4]; [17],40 min
same,Maximum Decrease in Glucose (% of Baseline),[4]; [17],48%
same,Mean maximum decrease in glucose from baseline,"[4]; normal subjects, 0.2 U/kg BW inhaled",41±10%
same,Effect on blood glucose levels,"[4]; normal subjects, approximately 0.2 U/kg BW aerosolized insulin to the mouth",effectively lowered blood glucose levels in the normal subjects
same,"Amount of insulin absorbed through the nasal mucosa, relative to dose delivered by intravenous injection",[5],approximately 10%
same,"Dose required to lower blood glucose, relative to subcutaneous dose",[5],2.5 times
same,Local effects after intranasal administration,[5],subjects reported nasal irritation and nasal congestion
same,Time to Peak Insulin Level,[6]; [7],5 min
same,log Peak Insulin Level,[6]; [7],2.7694
same,Peak Insulin Level,[6]; [7],588 SI units
same,Time to Peak Insulin Level,[6]; [8],15 min
same,log Peak Insulin Level,[6]; [8],2.2967
same,Peak Insulin Level,[6]; [8],198 SI units
same,Time to Peak Insulin Level,[6]; [9],40 min
same,log Peak Insulin Level,[6]; [9],2.3096
same,Peak Insulin Level,[6]; [9],204 SI units
same,Time to Peak Insulin Level,[6]; [10],52 min
same,log Peak Insulin Level,[6]; [10],2.3909
same,Peak Insulin Level,[6]; [10],246 SI units
same,Time to Peak Insulin Level,[6]; [11],25 min
same,log Peak Insulin Level,[6]; [11],2.0569
same,Peak Insulin Level,[6]; [11],114 SI units
same,Time to Peak Insulin Level,[6]; [12],100 min
same,log Peak Insulin Level,[6]; [12],2.7513
same,Peak Insulin Level,[6]; [12],564 SI units
same,Return of blood insulin levels to baseline,"[6]; approximately 0.2 U/kg BW inhaled, up to 200 minutes",did not return to baseline by the time the experiment was concluded in seven of the study subjects
same,"Peak Insulin Level, geometric mean",[6]; [13],254 SI units
same,"Time to Peak Insulin Level, mean",[6]; [13],35 min and 35 ± 31 min
same,"log Peak Insulin Level, mean",[6]; [13],2.4055
same,Insulin absorption across the lung mucosa compared with subcutaneous administration,[6]; inhaled aerosol,more rapid than following subcutaneous administration
same,Time to Peak Insulin Level,[6]; [14],10 min
same,log Peak Insulin Level,[6]; [14],2.1399
same,Peak Insulin Level,[6]; [14],138 SI units
same,Time to Peak Insulin Level,[6]; [15],35 min
same,log Peak Insulin Level,[6]; [15],2.3345
same,Peak Insulin Level,[6]; [15],216 SI units
same,Time to Peak Insulin Level,[6]; [16],5 min
same,log Peak Insulin Level,[6]; [16],2.4771
same,Peak Insulin Level,[6]; [16],300 SI units
same,Time to Peak Insulin Level,[6]; [17],5 min
same,log Peak Insulin Level,[6]; [17],2.3345
same,Peak Insulin Level,[6]; [17],216 SI units
same,"Time at which blood insulin levels peaked post inhalation, range",[6]; range over all subjects and doses,between five and one hundred minutes
